Assays:
[1] = system: normal NK cells expanded with K562-aAPC; experiment: percent inhibition of viability; higher = more inhibition; settings: 72 h, IL-2 2.5 ng/mL
Protocol: (§1)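 Drug sensitivity and resistance testing on K562-aAPC-expanded normal NK cells: 5 concentrations (10-fold steps over a 10,000-fold range), 72 h at 37 °C, viability by CellTiter-Glo normalised to DMSO and benzethonium chloride controls; DSS from the fitted curve.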

DERL-7 (IL-2 2.5 ng/mL) [2] = experiment: as above; settings: 72 h
IMC-1 (IL-2 20 ng/mL) [3] = experiment: as above; settings: 72 h
KAI3 (IL-2 2.5 ng/mL) [4] = experiment: as above; settings: 72 h
KHYG-1 (IL-2 2.5 ng/mL) [5] = experiment: as above; settings: 72 h
NK-92 (IL-2 2.5 ng/mL) [6] = experiment: as above; settings: 72 h
NK-YS (IL-2 2.5 ng/mL) [7] = experiment: as above; settings: 72 h
NKL (IL-2 2.5 ng/mL) [8] = experiment: as above; settings: 72 h
SNK-6 (IL-2 2.5 ng/mL) [9] = experiment: as above; settings: 72 h
YT (IL-2 2.5 ng/mL) [10] = experiment: as above; settings: 72 h
[11] = system: normal primary NK cells, pool 1 (3 donors) (IL-2 2.5 ng/mL); experiment: as above; settings: 72 h
[12] = system: normal primary NK cells, pool 1 (3 donors), resting (IL-2 0 ng/mL); experiment: as above; settings: 72 h
[13] = system: normal primary NK cells, pool 2 (3 donors) (IL-2 2.5 ng/mL); experiment: as above; settings: 72 h
[14] = system: normal primary NK cells, pool 3 (3 donors) (IL-2 2.5 ng/mL); experiment: as above; settings: 72 h
[15] = system: normal NK cells expanded with K562-aAPC; experiment: drug sensitivity score (DSS) (DSS units); higher = more sensitive; extreme values may be limits of the assay; settings: 72 h; IL-2 2.5 ng/mL
Protocol: as §1

DERL-7 (IL-2 2.5 ng/mL) [16] = experiment: as above; settings: 72 h
IMC-1 (IL-2 20 ng/mL) [17] = experiment: as above; settings: 72 h
KAI3 (IL-2 2.5 ng/mL) [18] = experiment: as above; settings: 72 h
KHYG-1 (IL-2 2.5 ng/mL) [19] = experiment: as above; settings: 72 h
NK-92 (IL-2 2.5 ng/mL) [20] = experiment: as above; settings: 72 h
NK-YS (IL-2 2.5 ng/mL) [21] = experiment: as above; settings: 72 h
NKL (IL-2 2.5 ng/mL) [22] = experiment: as above; settings: 72 h
SNK-6 (IL-2 2.5 ng/mL) [23] = experiment: as above; settings: 72 h
YT (IL-2 2.5 ng/mL) [24] = experiment: as above; settings: 72 h
[25] = system: normal primary NK cells, pool 1 (3 donors) (IL-2 2.5 ng/mL); experiment: as above; settings: 72 h
[26] = system: normal primary NK cells, pool 1 (3 donors), resting (IL-2 0 ng/mL); experiment: as above; settings: 72 h
[27] = system: normal primary NK cells, pool 2 (3 donors) (IL-2 2.5 ng/mL); experiment: as above; settings: 72 h
[28] = system: normal primary NK cells, pool 3 (3 donors) (IL-2 2.5 ng/mL); experiment: as above; settings: 72 h

OC[C@H]1O[C@@H](n2cnc3c2N=CNC[C@H]3O)C[C@@H]1O [Pentostatin] (max concentration tested 10000 nM)
percent inhibition of viability [%]
Settings | 1 nM | 10 nM | 100 nM | 1000 nM | 10000 nM
DERL-7 (IL-2 2.5 ng/mL) [2] | -9.03 | 2.32 | -10.5 | -5.23 | -4.31
IMC-1 (IL-2 20 ng/mL) [3] | 0.7 | -6.1 | 1.22 | 0.79 | 10.6
KAI3 (IL-2 2.5 ng/mL) [4] | -10.6 | -16.4 | -2.67 | -7.59 | -0.36
KHYG-1 (IL-2 2.5 ng/mL) [5] | -3.74 | -3.32 | 0.86 | 5.07 | 5.26
NK-92 (IL-2 2.5 ng/mL) [6] | -4 | -10.1 | -2.52 | -6.44 | 6.47
NK-YS (IL-2 2.5 ng/mL) [7] | -2.76 | -5.13 | -3.05 | 6.9 | 9.33
NKL (IL-2 2.5 ng/mL) [8] | -20.9 | -21.1 | -17.4 | -6.93 | -7.04
SNK-6 (IL-2 2.5 ng/mL) [9] | 4.13 | 3.89 | 8.33 | 34 | 20.9
YT (IL-2 2.5 ng/mL) [10] | -4.24 | -0.68 | 3.36 | 4.3 | 8.72
[1] | 0.75 | -2.98 | 3.38 | 6.95 | 8.99
[11] | -3.11 | 3.31 | -8.32 | -5.87 | 1.1
[12] | -7.98 | 1.6 | -13.1 | -28.3 | -7.61
[13] | -9.21 | -12.2 | -5.88 | -13.3 | 1.05
[14] | -11.3 | -12.5 | -7.39 | -4.5 | 11.5

Settings | drug sensitivity score
DERL-7 (IL-2 2.5 ng/mL) [16] | 0
IMC-1 (IL-2 20 ng/mL) [17] | 0
KAI3 (IL-2 2.5 ng/mL) [18] | 0
KHYG-1 (IL-2 2.5 ng/mL) [19] | 0
NK-92 (IL-2 2.5 ng/mL) [20] | 0
NK-YS (IL-2 2.5 ng/mL) [21] | 0
NKL (IL-2 2.5 ng/mL) [22] | 0
SNK-6 (IL-2 2.5 ng/mL) [23] | 7.04
YT (IL-2 2.5 ng/mL) [24] | 0
[15] | 0
[25] | 0
[26] | 0
[27] | 0
[28] | 0

CC1(C)CCC(CN2CCN(c3ccc(C(=O)NS(=O)(=O)c4ccc(NCC5CCOCC5)c([N+](=O)[O-])c4)c(Oc4cnc5[nH]ccc5c4)c3)CC2)=C(c2ccc(Cl)cc2)C1 [Venetoclax] (max concentration tested 10000 nM)
percent inhibition of viability [%]
Settings | DERL-7 (IL-2 2.5 ng/mL) [2] | KAI3 (IL-2 2.5 ng/mL) [4] | KHYG-1 (IL-2 2.5 ng/mL) [5] | NK-92 (IL-2 2.5 ng/mL) [6] | NK-YS (IL-2 2.5 ng/mL) [7] | NKL (IL-2 2.5 ng/mL) [8] | SNK-6 (IL-2 2.5 ng/mL) [9] | YT (IL-2 2.5 ng/mL) [10] | [11] | [12]
1 nM | 1.21 | 27.7 | -4.77 | -4.75 | 4.6 | 5.96 | 10.4 | 3.82 | -1.92 | -13.2
10 nM | 17 | 55.8 | -0.91 | 2.95 | 3.22 | 19.3 | 48.6 | 7.84 | -1.34 | 53.6
100 nM | 36.3 | 71 | 1.35 | 18.2 | 6.71 | 45.6 | 50.4 | 10.9 | 4.44 | 87.3
1000 nM | 54.6 | 91.3 | 29.1 | 17 | 25.8 | 55.5 | 74.7 | 67.4 | 36.7 | 91.6
10000 nM | 87.8 | 98.7 | 82.5 | 66.6 | 82.6 | 85.8 | 96.6 | 88.4 | 67.1 | 91.2

Settings | drug sensitivity score
DERL-7 (IL-2 2.5 ng/mL) [16] | 16.2
KAI3 (IL-2 2.5 ng/mL) [18] | 33.6
KHYG-1 (IL-2 2.5 ng/mL) [19] | 8.64
NK-92 (IL-2 2.5 ng/mL) [20] | 5.65
NK-YS (IL-2 2.5 ng/mL) [21] | 7.95
NKL (IL-2 2.5 ng/mL) [22] | 18.4
SNK-6 (IL-2 2.5 ng/mL) [23] | 26.1
YT (IL-2 2.5 ng/mL) [24] | 14.1
[25] | 8.04
[26] | 34.5

COCC1(CO)C(=O)C2CCN1CC2 (configuration not stated) [APR-246] (max concentration tested 10000 nM)
percent inhibition of viability [%]
Settings | 1 nM | 10 nM | 100 nM | 1000 nM | 10000 nM
DERL-7 (IL-2 2.5 ng/mL) [2] | 4.22 | 1.94 | 4.99 | -6.45 | 12.9
IMC-1 (IL-2 20 ng/mL) [3] | -7.37 | -2.9 | -3.59 | 8.76 | 9.03
KAI3 (IL-2 2.5 ng/mL) [4] | -1.81 | 0.4 | -2.31 | 2.12 | 16.5
KHYG-1 (IL-2 2.5 ng/mL) [5] | -5.21 | -0.64 | -2.81 | 5.38 | 7.34
NK-92 (IL-2 2.5 ng/mL) [6] | -5.03 | 9.77 | 10.8 | 10.9 | 10.2
NK-YS (IL-2 2.5 ng/mL) [7] | -7.21 | 1.41 | 3.46 | 5.78 | 20.9
NKL (IL-2 2.5 ng/mL) [8] | -3.21 | -5.06 | 5.12 | 11 | 36.4
SNK-6 (IL-2 2.5 ng/mL) [9] | 4.82 | 6.66 | 11.8 | 20.5 | 26.2
YT (IL-2 2.5 ng/mL) [10] | -1.79 | -3.13 | 4.5 | 1.6 | 7.67
[1] | -2.16 | 1.78 | 5.44 | 14.3 | 66.4
[11] | 0.39 | -11.5 | 5.91 | 70.5 | 98
[12] | -1.14 | -6.72 | 13.5 | 82.8 | 91.7
[13] | -11.3 | -4.04 | 11.3 | 77 | 96
[14] | -9.08 | -4.43 | 12.5 | 73 | 98

Settings | drug sensitivity score
DERL-7 (IL-2 2.5 ng/mL) [16] | 0.03
IMC-1 (IL-2 20 ng/mL) [17] | 0
KAI3 (IL-2 2.5 ng/mL) [18] | 0.58
KHYG-1 (IL-2 2.5 ng/mL) [19] | 0
NK-92 (IL-2 2.5 ng/mL) [20] | 0.65
NK-YS (IL-2 2.5 ng/mL) [21] | 1.17
NKL (IL-2 2.5 ng/mL) [22] | 3.01
SNK-6 (IL-2 2.5 ng/mL) [23] | 3.96
YT (IL-2 2.5 ng/mL) [24] | 0
[15] | 5.95
[25] | 14.2
[26] | 16.9
[27] | 15.7
[28] | 15.2

CCc1c2c(nc3ccc(OC(=O)N4CCC(N5CCCCC5)CC4)cc13)-c1cc3c(c(=O)n1C2)COC(=O)[C@]3(O)CC [Irinotecan] (max concentration tested 10000 nM)
percent inhibition of viability [%]
Settings | 1 nM | 10 nM | 100 nM | 1000 nM | 10000 nM
DERL-7 (IL-2 2.5 ng/mL) [2] | -4.74 | 4.74 | 6.64 | 65.6 | 96.7
IMC-1 (IL-2 20 ng/mL) [3] | -2.65 | -6.08 | 0 | 95.8 | 99.6
KAI3 (IL-2 2.5 ng/mL) [4] | 16.1 | 10.6 | 29.7 | 88.8 | 84.8
KHYG-1 (IL-2 2.5 ng/mL) [5] | 0.37 | -3.33 | 25.7 | 104 | 109
NK-92 (IL-2 2.5 ng/mL) [6] | 0.95 | -2.29 | 30 | 104 | 109
NK-YS (IL-2 2.5 ng/mL) [7] | -7.5 | -7.35 | 7.27 | 94.2 | 98.5
NKL (IL-2 2.5 ng/mL) [8] | -2.62 | 5.5 | 62.6 | 105 | 108
SNK-6 (IL-2 2.5 ng/mL) [9] | 18.2 | -16.5 | 10.3 | 93.8 | 98.5
YT (IL-2 2.5 ng/mL) [10] | -5.37 | -7.93 | 2.4 | 78.1 | 108
[1] | -0.14 | -0.75 | 0.82 | 45.8 | 61
[11] | -8.27 | 6.89 | -1.05 | 3.55 | 14.4
[12] | 4.36 | 9.89 | 22.8 | 2.26 | -9.62
[13] | 1.46 | 0.89 | 3.4 | 10 | 20.8
[14] | 3.5 | 8.16 | 16.4 | 10.7 | 17.2

Settings | drug sensitivity score
DERL-7 (IL-2 2.5 ng/mL) [16] | 13.6
IMC-1 (IL-2 20 ng/mL) [17] | 17.4
KAI3 (IL-2 2.5 ng/mL) [18] | 19.5
KHYG-1 (IL-2 2.5 ng/mL) [19] | 21.9
NK-92 (IL-2 2.5 ng/mL) [20] | 22.4
NK-YS (IL-2 2.5 ng/mL) [21] | 18.3
NKL (IL-2 2.5 ng/mL) [22] | 25.6
SNK-6 (IL-2 2.5 ng/mL) [23] | 18.7
YT (IL-2 2.5 ng/mL) [24] | 14.6
[15] | 8.77
[25] | 0.5
[26] | 0
[27] | 1.23
[28] | 2.6

Reference: the supplement of paper PMC5908809
